Reference: ChEMBL document CHEMBL5390249, “Analysis of structure-activity relationship of indol-3-yl-N-phenylcarbamic amides as potent STING inhibitors” (Bioorg Med Chem, 2023)
Active and inactive are the calls of the source. The calls are words filed in the database; no cut-off is given here.

Tests used:
[1] = target: Stimulator of interferon genes protein (Homo sapiens) (UniProt Q86WV6); experiment: Inhibition of STING in human THP1-Dual KI-hSTING-R232 cells assessed as cGAMP-induced IRF luciferase expression at 1 uM incubated for 2 hrs by QUANTI-Luc reagent based luciferase reporter assay; format: cell-based
Sequence of Stimulator of interferon genes protein (Homo sapiens) (Q86WV6 whole entry): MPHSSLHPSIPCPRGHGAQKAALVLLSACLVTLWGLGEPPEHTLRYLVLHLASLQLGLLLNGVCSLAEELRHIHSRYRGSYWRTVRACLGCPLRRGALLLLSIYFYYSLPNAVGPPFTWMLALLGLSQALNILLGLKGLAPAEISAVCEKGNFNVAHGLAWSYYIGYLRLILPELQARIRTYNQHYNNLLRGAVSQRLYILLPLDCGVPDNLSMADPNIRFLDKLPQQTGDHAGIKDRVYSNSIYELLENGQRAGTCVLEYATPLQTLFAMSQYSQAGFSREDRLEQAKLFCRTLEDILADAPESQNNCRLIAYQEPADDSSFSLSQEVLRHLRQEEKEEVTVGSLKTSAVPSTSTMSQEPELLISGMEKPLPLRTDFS

[2] = system: Detroit 551; experiment: Cytotoxicity against human Detroit 551 cells assessed as reduction in cell viability by MTS assay; format: toxicity, cell-based

SMILES | inhibition [1] | Activity [2]
CN(C)c1ccc(NC(=O)Nc2c[nH]c3ccccc23)cc1 | inactive | –
Cc1ccc(NC(=O)Nc2c[nH]c3ccccc23)cc1Cl | – | Non-Toxic
O=C(Nc1ccc(OC(F)(F)F)cc1)Nc1c[nH]c2ccccc12 | – | Non-Toxic
O=C(Nc1cccc(F)c1)Nc1c[nH]c2ccccc12 | Active | –
Cc1cccc(NC(=O)Nc2c[nH]c3ccccc23)c1C | inactive | –
Cn1cc(NC(=O)Nc2ccc(OC(F)(F)F)cc2)c2ccccc21 | inactive | –
CCc1ccc(NC(=O)Nc2c[nH]c3ccccc23)cc1 | – | Non-Toxic
Cc1cccc(NC(=O)Nc2c[nH]c3ccccc23)c1 | Active | –
COc1ccc(NC(=O)Nc2c[nH]c3ccccc23)cc1 | inactive | –
NC(=O)c1ccc(NC(=O)Nc2c[nH]c3ccccc23)cc1 | inactive | –
Cc1ccc(NC(=O)Nc2c[nH]c3ccccc23)c(C)c1 | inactive | –
CC(=O)c1ccc(NC(=O)Nc2cn(C)c3ccccc23)cc1 | inactive | –
Cc1ccccc1NC(=O)Nc1c[nH]c2ccccc12 | inactive | –
Cn1cc(NC(=O)Nc2ccc(F)c(F)c2)c2ccccc21 | inactive | –
O=C(Nc1ccc(Cl)cc1)Nc1c[nH]c2ccccc12 | – | Non-Toxic
COc1cccc(NC(=O)Nc2c[nH]c3ccccc23)c1 | Active | –
O=C(Nc1c[nH]c2ccccc12)N1Cc2ccccc2C1 | inactive | –
Cn1cc(NC(=O)Nc2ccc(F)c(Cl)c2)c2ccccc21 | inactive | –
O=C(Nc1ccc2c(c1)OCCO2)Nc1c[nH]c2ccccc12 | inactive | –
CCc1ccc(NC(=O)Nc2cn(C)c3ccccc23)cc1 | inactive | –
CCc1ccccc1NC(=O)Nc1c[nH]c2ccccc12 | inactive | –
CN(C(=O)Nc1c[nH]c2ccccc12)c1ccccc1 | inactive | –
Cn1cc(NC(=O)Nc2ccc(C(N)=O)cc2)c2ccccc21 | inactive | –
O=C(Nc1ccc(C(F)(F)F)cc1)Nc1c[nH]c2ccccc12 | – | Non-Toxic
O=C(Nc1cccc(Cl)c1)Nc1c[nH]c2ccccc12 | Active | –
CC(C)c1ccc(NC(=O)Nc2c[nH]c3ccccc23)cc1 | – | Non-Toxic
